In patent EP0751957B1, “PEPTIDE FRAGMENTS OF MICROBIAL STRESS PROTEINS AND PHARMACEUTICAL COMPOSITION MADE THEREOF FOR THE TREATMENT AND PREVENTION OF INFLAMMATORY DISEASES” (priority 1994, dated 2004):

Assays:
[1] = test system: adjuvant arthritis; test: Adjuvant arthritis (AA) induced with Mt in IFA, clinical arthritis score; type: in vivo, Lewis rats; settings: 100 µg peptide in DDA, hind footpads, 7 days prior to AA induction with Mt
Procedure: Induction and clinical assessment of experimental arthritis: Arthritis was induced by a single intradermal injection in the base of the tail. AA was induced with 0.5 mg Mt suspended in 100 µl IFA. CP20961 arthritis was induced with 2 mg CP20961 in 100 µl light mineral oil (Sigma). Rats were examined daily for clinical signs of arthritis. Severity of arthritis was assessed by scoring each paw from zero to four based on degree of swelling, erythema and deformity of the joints. Thus the maximum possible arthritis score was 16.
Modulation of arthritis with hsp65 peptides and epitope-specific T cell lines: Synthetic peptides corresponding to eight T cell epitopes present in mycobacterial hsp65 were tested for protective effects on arthritis development. Rats were immunised with 100 µg of individual peptide seven days prior to arthritis induction. Peptides were immunised in each hind footpad in 10 mg/ml DDA (50 µl/pad). Control rats received only PBS/DDA. Epitope-specific T cell lines were also tested for protective activity by intravenous administration of lines at the time of arthritis induction. T cell lines were restimulated in vitro with irradiated spleen APC and specific peptide. Four days later T cell blasts were harvested by ficoll gradient, washed and applied to a second ficoll gradient to remove any contaminating APC. T cells were washed twice in wash medium and twice in PBS and finally suspended at 2.5x10^7/ml in PBS. Immediately prior to injection of Mt, 200 µl (i.e. 5x10^6) T cells were injected i.v. in the tail vein.
The effects of preimmunisation with synthetic peptides containing individual epitopes on the development of AA were analysed (Fig. 7). The eight peptides which primed for epitope specific T cells were tested. Rats were immunised with 100 µg of peptide 7 days prior to AA-induction with Mt.

[2] = test system: RT1.B^1 molecules; test: Inhibition of proliferation of T cell lines with other Ag specificities (MHC affinity, preliminary); type: cell-based, Lewis rats; settings: preliminary experiments, data not shown
Procedure: The relatively low quantities of hsp65 present in the Mt preparation might result in focusing of T cell responses on hsp65 epitopes with higher affinities for MHC class II molecules. […] Thus, when Ag concentrations are limited (i.e. following Mt immunisation) dominance of T cell epitopes might be more dependent on their relative MHC binding affinities, whereas following immunisation with large quantities of specific antigen (50-100 µg hsp65 per rat) relative dominance might not be simply a function of affinity for MHC. Clearly, antigen processing of the intact hsp65 molecule will determine the peptide fragments generated during in vivo priming, and the naturally processed fragments will not be identical to the synthetic 15mers used in this study. Also the molecular context of hsp65 (i.e recombinant monomeric hsp65, or the multimeric native protein in the Mt preparation) could affect antigen processing and influence the pattern of epitope recognition.

Substance: peptide 176-190: synthetic 15mer of mycobacterial hsp65 containing the AA-associated epitope 180-188
- protection against AA development after peptide preimmunisation [1]: no effect on AA onset
- affinity for RT1.B^1 molecules relative to peptides 211-225 or 226-240 [2]: higher affinity
